Results: US20060128744A1, “Use of 5-HT6 agonist for the treatment and prevention of neurodegenerative disorders” (Wyeth, priority 2004, published 2006)

Tests used:
[1] = target: T1, human 5-HT6 receptor stabily transfected into HELA cells (Homo sapiens, UniProt P50406); assay: 5-HT6 agonist activity using cAMP accumulation; format: cell-based
T1 construct: expressed in transfected cells; host or cells: HeLa cells, stably transfected
Protocol: Upon initiation of the assay, the media from cell maintenance is aspirated and cells are preincubated at 37° C. for 15 mins. in KREBS buffer. Following this primary incubation, the buffer is aspirated and an additional incubation is performed at 37° C. for 5 mins. in KREBS buffer containing 500 uM IBMX (3-isobutyl-1-methylxanthine). […] The assay is terminated by the addition of 0.5M perchloric acid. […] Data are analyzed graphically with GraphPad Prism (GraphPad Software, San Diego, Calif.).

[2] = target: T2, human cloned 5-HT6 receptors (Homo sapiens, UniProt P50406); assay: 5-HT6 binding affinity, [3H]-LSD displacement in membranes of Hela cells
T2 construct: expressed in transfected cells; host or cells: HeLa cells (membrane preparation)
Protocol: The affinity of test compounds for the serotonin 5-HT6 receptor is evaluated in the following manner. Cultured Hela cells expressing human cloned 5-HT6 receptors are harvested and centrifuged at low speed (1,000×g) for 10.0 min to remove the culture media. The harvested cells are suspended in half volume of fresh physiological phosphate buffered saline solution and recentrifuged at the same speed. This operation is repeated. The collected cells are then homogenized in ten volumes of 50 mM Tris.HCl (pH 7.4) and 0.5 mM EDTA. The homogenate is centrifuged at 40,000×g for 30.0 min and the precipitate is collected. The obtained pellet is resuspended in 10 volumes of Tris.HCl buffer and recentrifuged at the same speed. The final pellet is suspended in a small volume of Tris.HCl buffer and the tissue protein content is determined in aliquots of 10-25 μl volumes. […] The volume of the suspended cell membranes is adjusted to give a tissue protein concentration of 1.0 mg/ml of suspension. […]
The bound complex caught on the filter disk is allowed to air dry and the radioactivity is measured in a Packard TopCount® equipped with six photomultiplier detectors, after the addition of 40.0 μl Microscint®-20 scintillant to each shallow well.
Binding in the presence of varying concentrations of test compound is expressed as a percentage of specific binding in the absence of test compound. […]

[3] = test system: cortical neuron cultures from E16 rat embryos; conditions: 72 h
Protocol: In this evaluation cortical neuron cultures are prepared from E16 rat embryos. […] Neurite outgrowth is determined after a 72 h period by staining cells with a tubulin antibody (TUJ-1) and measuring neurite length with the Cellomics ArrayScan, using the Enhanced Neurite Outgrowth (ENO) algorithm. The data are expressed as total neurite length.

[4] = test system: brain derived neurotrophic factor (BDNF) protein in cortical neuron cultures; assay: BDNF protein levels in cultured cortical neurons, sandwich ELISA; format: cell-based, rat; conditions: 72 h in culture
Protocol: In this evaluation cortical neuron cultures are prepared from E16 rat embryos and plated on pre-coated 10 cm Petri dishes. […] Levels of brain derived neurotrophic factor (BDNF) protein were measured after a 72 h period by lysing the cells and using a BDNF sandwich ELISA. More specifically, ELISA plates were coated with an anti-BDNF monoclonal antibody. Nonspecific binding was blocked and 50 μg of sample protein was added. A second anti-BDNF antibody was added and incubated. An anti-IgY antibody conjugated with horseradish peroxidase was added and incubated. A TMB solution was added and the colorimetric reaction was measured in a plate reader (absorbance of 450 nm). BDNF levels are quantified after 72 h in culture.

[5] = test system: neuron cultures from E16 rat embryos; conditions: 72 h
Protocol: In this evaluation neuron cultures are prepared from E16 rat embryos. […] After a 72 h period, neuronal survival is determined by a neurofilament ELISA.
The data are expressed as total neurofilament content.

[6] = test system: cerebellar granule neurons; assay: Potassium withdrawal-induced apoptosis in cerebellar granule neurons, DNA fragmentation ELISA; format: cell-based, rat; conditions: 5 mM K+, 24 h
Protocol: (§1) Cerebella isolated from P7 rat pup brains are cut into 1 mm pieces and transferred to a tube containing 0.3 mg/ml trypsin in HBSS. Following enzymatic digestion, the tissue is mechanically triturated. The supernatant is collected and centrifuged at 1200 rpm for 10 minutes. The resultant pellet is resuspended in complete media (Neurobasal, […], 0.5 mM L-glutamine, 100 U/ml penicillin, 100 μg/ml streptomycin, 10% FBS) and plated at a density of 0.5×10^6 cells/well in 24-well plates. After 24 h, media is exchanged with complete serum-free medial (Neurobasal, […], 0.5 mM L-glutamine, 100 U/ml penicillin, 100 μg/ml streptomycin, B-27 supplement).
Potassium withdrawal, i.e. replacement of […] in the CGN culture medium is a well established model of neuronal cell death by apoptosis (T. M. Miller and E. M. Johnson, Journal of Neuroscience, (1996) 16(23), pp7487-7495). Cultures are maintained for 7 days prior to experimentation. Complete media containing 25 mM K^+ is exchanged with complete media containing 5 mM K^+. […] After 24 h, apoptotic cell death is determined by measuring DNA fragmentation via ELISA. Apoptotic cell death is expressed as % apoptosis.

[7] = test system: cerebellar granule neurons; assay: Oxygen glucose deprivation (OGD) in cerebellar granule neurons, LDH release; format: cell-based, rat; conditions: 4 h OGD, 24 h recovery
Protocol: as §1
This is a well characterized model of ischemia-like neuronal injury involving glutamate-induced excitotoxicity (A. Kaasik, et al, Neuroscience (2001) 102, pp427-432). Cultures are maintained for 14 days in vitro prior to experimentation. […] Following the 4 h OGD, deoxygenated buffer is exchanged with complete media. […] At the end of the 24-h period, cell death is determined by measuring lactate dehydrogenase (LDH) released into the media and is expressed as a percent of cell death. The results are shown in FIG. 3 and are presented as means±SD from 5 experiments. Sham bar represents results obtained with cultures subjected to manipulations and changes of culture media without OGD or drug treatment.

T1 sequence (P50406 whole entry): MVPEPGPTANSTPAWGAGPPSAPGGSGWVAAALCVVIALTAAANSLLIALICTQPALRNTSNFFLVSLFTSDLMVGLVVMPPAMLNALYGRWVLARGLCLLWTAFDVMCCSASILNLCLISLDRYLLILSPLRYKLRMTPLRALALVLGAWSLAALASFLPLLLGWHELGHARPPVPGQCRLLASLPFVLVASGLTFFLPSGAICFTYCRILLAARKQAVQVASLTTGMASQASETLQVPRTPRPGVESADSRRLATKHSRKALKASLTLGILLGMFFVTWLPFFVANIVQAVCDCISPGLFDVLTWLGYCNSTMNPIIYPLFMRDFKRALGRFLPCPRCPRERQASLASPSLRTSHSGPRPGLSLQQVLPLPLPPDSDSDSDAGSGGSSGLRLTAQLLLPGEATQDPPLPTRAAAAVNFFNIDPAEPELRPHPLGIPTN
T2 sequence (P50406 whole entry): as above

COc1ccc(OC)c(S(=O)(=O)c2cn(CCN)c3ncccc23)c1 [Test Compound A, (2-{3-[(2,5-dimethoxyphenyl)sulfonyl]-1H-pyrrolo[2,3-b]pyridin-1-yl}ethyl)amine]
Emax [1]: 95% | Ki [2]: 3.6 nM

CN(C)CCn1cc(S(=O)(=O)c2cccc(F)c2)c2cccnc21 [Test Compound B, N-(2-{3-[(3-fluorophenyl)sulfonyl]-1H-pyrrolo[2,3-b]pyridin-1-yl}ethyl)-N,N-dimethylamine]
total neurite length compared to vehicle treated controls [3]: increased total neurite length | BDNF protein levels compared to vehicle treated control [4]: significantly increased BDNF protein levels | neurofilament content compared to vehicle treated controls [5]: increases the neurofilament content

NCCc1cn(S(=O)(=O)c2c(Cl)nc3sccn23)c2ccccc12 [Test Compound C]
reduction of apoptotic cell death ([6]; 0.3 μM): 50% | protection from apoptosis ([6]; 3.0 μM): almost total protection from apoptosis | effect on amount of fragmented DNA (measure of apoptosis) [6]: significantly, and dose dependently, attenuated | reduction of neuronal death ([7]; 1 μM): 50% | effect on OGD-induced neuronal cell death ([7]; 1 h pretreatment): dose-dependent reduction of neuronal cell death | lowest concentration providing significant protection against OGD-induced cell death ([7]; LDH release): 10 nM
